Experimental data taken from patent publication US6479662B2, “Antitumor dibenzofluorene derivatives” (Board of Regents, The University of Texas System, priority 1998, dated 2002).
“Also recorded” adds a separate entry of the source.

How the values were obtained:
[1] = tested on: six to eight cultured tumor cell lines; assay: In vitro cytotoxicity against the panel of tumor lines (overall activity grouping); type: cell-based, human and/or animal; settings: for change in activity relative to Tx-37 (in words): structural modification of Tx-37; for change in activity relative to Tx-38 (in words): structural modification of Tx-38; for anti-tumor activity (in words): summary over the tumor lines; for activity group: grouped as determined by the majority of the results over all tumor lines
Protocol: (§1) Every dibenzofluorene derivative was tested, as will be described below, against six to eight cultured, tumor cell lines of human and/or animal origin, at least half of which were selected from the NCI panel of test tumors. In each experiment, Adriamycin (ADR) was used as a maximally positive control.
(§2) Data are IC50 values (MTT assay) reported as μg/ml for 72 hours continuous exposure to the drug. Drugs were prepared in DMSO:PEG300 (1:1). Further, dilutions were made in a cell culture medium with fetal bovine serum.
Additional tumor lines against which the drugs were tested in certain series included L1210 (leukemia), PC3 (prostate) and several others.
(§3) Compounds were evaluated for solubility characteristics in vehicles which would be appropriate for use in cell culture. The compounds were added to the cell lines under continuous culture for 72 hours. Inhibition of growth relative to control cell culture was determined by the MTT method at the end of 72 hours. This is a test of the relative ability of a compound to inhibit cell growth not survival. However, inhibition of growth may reflect cell death and/or cytostasis.
ADR invariably produced the described anti-tumor effect against all tumor lines at concentrations lower than 1 μg/ml of culture media. The effect of the Tx-compounds was divided into five activity groups as described below. In all cases, if activity against a single tumor line differed radically from that against all others, notation was made of this specificity but the agent was grouped as determined by the majority of the results.

[2] = tested on: OVCAR 3 human ovarian carcinoma; assay: In vitro cytotoxicity, MTT assay, 72 h continuous exposure; type: cell-based; settings: average over runs, value above 50 = 50% inhibition not achieved at 50 μg/ml
Protocol: as §1, §2, §3

[3] = tested on: P388/0 murine lymphatic leukemia; assay: as above; type: cell-based; settings: average over runs, value above 50 = 50% inhibition not achieved at 50 μg/ml
Protocol: as §1, §2, §3

BRO human melanoma = assay: as above; type: cell-based; settings: average over runs, value above 50 = 50% inhibition not achieved at 50 μg/ml
Protocol: as §1, §2, §3

[4] = tested on: HL-60 human promyelocytic leukemia; assay: as above; type: cell-based; settings: average over runs, value above 50 = 50% inhibition not achieved at 50 μg/ml
Protocol: as §1, §2, §3

[5] = tested on: MCF-7 human breast carcinoma; assay: as above; type: cell-based; settings: average over runs, value above 50 = 50% inhibition not achieved at 50 μg/ml
Protocol: as §1, §2, §3

[6] = tested on: HT-29 human colon adenocarcinoma; assay: as above; type: cell-based; settings: average over runs, value above 50 = 50% inhibition not achieved at 50 μg/ml
Protocol: as §1, §2, §3

Row | Structure (SMILES) | change in activity relative to Tx-37 (in words) [1] | average IC50 OVCAR-3 [2] [µg/mL] | average IC50 P388/0 [3] [µg/mL] | average IC50 BRO (BRO human melanoma) [µg/mL] | average IC50 HL-60 [4] [µg/mL] | average IC50 MCF-7 [5] [µg/mL] | change in activity relative to Tx-38 (in words) [1] | anti-tumor activity (in words) [1] | average IC50 HT-29 [6] [µg/mL] | IC50 ([1]; Homo sapiens, all tumor lines, μg/ml of culture media, positive control, read-out: concentration producing the described anti-tumor effect against all tumor lines) [µg/mL] | activity group [1]
1 | CN1CCN(C(=O)CCC(=O)Nc2cc3c(c4ccccc24)-c2ccc4ccccc4c2C3O)CC1 (centres unmarked) [Tx-66] | minor change in the activity | 4.2 | 2.1 | 6.0 | 2.0 | 5.9 |  |  |  |  | 
2 | O=C(CCC(=O)N1CCCCC1)Nc1cc2c(c3ccccc13)-c1ccc3ccccc3c1C2O (centres unmarked) [Tx-67] |  | 8.8 | 9.2 | 14.7 | 5.6 | 8.9 | greatly increased the activity |  |  |  | 
3 | O=C(C=CC(=O)N1CCCCC1)Nc1cc2c(c3ccccc13)-c1ccc3ccccc3c1C2 [Tx-48, N-[11′-13′H-Dibenzo[a,g]-fluorenyl]-4-(1′-piperidinyl)-but-2-ene-1,4-dicarboxiamide] |  | 23.4 |  | 22.6 | 30.1 | 18.3 | little or no change |  |  |  | 
4 | CN1CCN(C(=O)CCC(=O)Nc2cc3c(c4ccccc24)-c2ccc4ccccc4c2C3)CC1 [Tx-37, N-[11′-(13′H-Dibenzo[a,g]-fluorenyl)]-4-(4′N methyl-piperazinyl)-butane-1,4-dicarboxiamide] |  | 1.9 | 2.0 | 1.8 | 1.6 | 3.0 |  | consistent, highly positive effects; also recorded: most active compound; also recorded: significant activities | 1.9 |  | 
5 | COc1cccc2c1C(=O)c1c(O)c3c(c(O)c1C2=O)C[C@@](O)(C(=O)CO)C[C@@H]3O[C@H]1C[C@H](N)[C@H](O)[C@H](C)O1 [ADR, Adriamycin, reference compound] |  |  |  |  |  |  |  |  |  | < 1 | 
6 | O=C(CCC(=O)N1CCCCC1)Nc1ccc2c(c1)Cc1ccccc1-2 [Tx-69] |  |  | 41.5 |  |  | 28.9 |  |  |  |  | 
7 | O=C(CCC(=O)N1CCCCC1)Nc1cc2c(c3ccccc13)-c1ccc3ccccc3c1C2=O [Tx-51] |  | 16.2 |  | 47.2 | 32.0 | 27.0 |  | little or no activity |  |  | 
8 | CN1CCN(C(=O)CCC(=O)Nc2cc3c(c4ccccc24)-c2ccc4ccccc4c2C3)CC1.Cl [Tx-49, N-[11′-(13′H-Dibenzo[a,g]-fluorenyl)]-4-(4′N methyl-piperazinyl hydrochloride)-butane-1,4-dicarboxiamide] | minor change in the activity | 2.8 | 3.1 | 2.5 | 2.5 | 5.7 |  |  | 2.5 |  | 
9 | CN1CCN(C(=O)C=CC(=O)Nc2cc3c(c4ccccc24)-c2ccc4ccccc4c2C3)CC1 [Tx-47] | reduced its activity significantly | 1.1 | 15.4 | 1.2 | 1.2 | 20.2 |  |  | 16.7 |  | GROUP C (These agents were effective against one-third to one-half of all tumor lines tested at levels less than 10 μg/ml)
10 | CN1CCN(C(=O)CCC(=O)Nc2cc3c(c4ccccc24)-c2ccc4ccccc4c2C3=O)CC1 [Tx-50] | slight diminution in activity | 6.6 | 3.7 | 11.2 | 4.0 | 18.1 |  | significant activities | 10.0 |  | 
11 | CN1CCN(C(=O)CCC(=O)Nc2ccc3c(c2)Cc2ccccc2-3)CC1 [Tx-68, N-[2′-(9′H-fluorenyl)]-4-(4′N methyl-piperazinyl)-butane-1,4-dicarboxiamide] |  | 31.7 |  |  |  | 18.2 |  |  |  |  | GROUP E (These agents produced some anti-tumor effect at doses above 10 μg/ml but less than 20 μg/ml)
12 | O=C(CCC(=O)N1CCCCC1)Nc1cc2c(c3ccccc13)-c1ccc3ccccc3c1C2 [Tx-38] |  | 39.5 | 42.9 | 46.4 | 14.9 | 22.8 |  | no significant anti-tumor activity; also recorded: little or no activity | 34.4 |  | 
